Results reported in PubChem BioAssay (NCI).
Where “and” joins values, the source holds several entries; their conditions need not be identical. Equal values may be shown once.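 Grown in 96-well plates, cells were treated for 48 hours with each compound at five concentrations. Insufficient inhibition: endpoint recorded as highest concentration tested. GI50: concentration for 50% inhibition of growth. Definition used: TGI = concentration required for complete inhibition of growth.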

Assays:
Test in all cases: growth of human tumour cells (NCI), 48 h
SK-MEL-5 melanoma = test system: SK-MEL-5 melanoma
SK-MEL-28 melanoma = test system: SK-MEL-28 melanoma
HL-60(TB) leukemia = test system: HL-60(TB) leukemia
LOX IMVI melanoma = test system: LOX IMVI melanoma
HOP-62 NSCLC = test system: HOP-62 NSCLC
OVCAR-8 ovarian = test system: OVCAR-8 ovarian
HCT-116 colon = test system: HCT-116 colon
SR leukemia = test system: SR leukemia
NCI-H460 lung = test system: NCI-H460 lung
HS 578T breast = test system: HS 578T breast

| SMILES | TGI (SK-MEL-5 melanoma) [µM] | TGI (SK-MEL-28 melanoma) [µM] | TGI (HL-60(TB) leukemia) [µM] | TGI (LOX IMVI melanoma) [µM] | TGI (HOP-62 NSCLC) [µM] | TGI (OVCAR-8 ovarian) [µM] | TGI (HCT-116 colon) [µM] | TGI (SR leukemia) [µM] | GI50 (SK-MEL-5 melanoma) [µM] | GI50 (SK-MEL-28 melanoma) [µM] | GI50 (HL-60(TB) leukemia) | GI50 (LOX IMVI melanoma) [µM] | GI50 (OVCAR-8 ovarian) [µM] | GI50 (HCT-116 colon) [µM] | GI50 (SR leukemia) [µM] | TGI (NCI-H460 lung) [µM] | GI50 (HOP-62 NSCLC) [µM] | GI50 (HS 578T breast) [µM] | TGI (HS 578T breast) [µM] | GI50 (NCI-H460 lung) [µM] |
| --- | --- | --- | --- | --- | --- | --- | --- | --- | --- | --- | --- | --- | --- | --- | --- | --- | --- | --- | --- | --- |
| CCOC(=O)C(=O)Nc1ccc(Cl)c(C(F)(F)F)c1 | > 100 | > 100 | > 100 | > 100 | > 100 | > 100 | > 100 | > 100 |  |  |  |  |  |  |  |  |  |  |  |  |
| CC(=O)OC12CC(C)C3(O)C4C=C(C)C(=O)[C@@]4(O)CC(CO)=C[C@H]3C1C2(C)C (stereo partly specified) | > 1000 | > 1000 | > 1000 | > 1000 |  | > 1000 | > 1000 | > 1000 | 33.4 | > 1000 | 0.432 µM and 0.751 µM | > 1000 | > 1000 | > 1000 | > 1000 |  |  |  |  |  |
| Cn1c(=O)oc2cc(C3CCC(=O)N3Cc3ccc(Cl)cc3)ccc21 (stereo unspecified) | > 100 | > 100 | > 100 | > 100 | > 100 | > 100 | > 100 | > 100 |  |  |  |  |  |  |  | > 100 |  |  |  |  |
| CC(=O)NC1=C(NCc2ccc(Cl)cc2)C(=O)c2ccccc2C1=O | 11.4 | 11.5 | 3.22 | 20.9 | > 50 | 14.1 | 9.35 | 29.9 |  |  |  |  |  |  |  | > 50 |  |  |  |  |
| C=CCN(CC=C)CC(C(C)=O)C(c1ccccc1)c1c(O)c2ccccc2oc1=O (stereo unspecified) | > 100 | > 100 | > 100 | > 100 | > 100 | > 100 | > 100 | > 100 |  |  |  |  |  |  |  |  |  |  |  |  |
| COc1ccccc1NC(=O)C1=C(C)NC(C)=C(C(=O)Nc2ccccc2OC)C1c1cccc2c1OCO2 | > 100 | > 100 | > 100 | > 100 | > 100 | > 100 | > 100 | > 100 |  |  |  |  |  |  |  | > 100 |  |  |  |  |
| O=C(O)c1ccc(C2C3C=CC(C3)C2[N+](=O)[O-])cc1 (stereo unspecified) | > 100 | > 100 | > 100 | > 100 | > 100 | > 100 |  |  |  |  |  |  |  |  |  | > 100 |  |  |  |  |
| Cc1cc2c(cc1Br)C1(C)CCC(C)C1(C)O2 (stereo unspecified) | 80.1 | > 100 | 34.1 | 35.4 | > 100 | > 100 | 29.1 | 30.5 |  |  |  |  |  |  |  | 53.7 |  |  |  |  |
| COc1ccc(-c2cc(-c3nnc(SCC(=O)Nc4ccc(C(C)=O)cc4)o3)c3ccccc3n2)cc1 | > 100 | > 100 | > 100 | > 100 | 58.6 | > 100 | > 100 |  | > 100 | > 100 | > 100 µM | 73.7 | 48.9 | 2.9 |  | > 100 | 15.7 | 14.2 | 92.3 | > 100 |
| CCC[CH2][Sn]1([CH2]CCC)[O]C(=O)CN=Cc2ccccc2[O]1 | > 100 | 1.1 |  | 0.527 | > 100 | 1.39 | 2.09 |  | 1.49 | 0.343 |  | 0.205 | 0.346 | 0.71 |  | 2.6 | 4.01 |  |  | 1.28 |
| C[Si]12OCCCN(CCO1)CCO2 | > 100 | > 100 |  |  |  | > 100 | > 100 | > 100 |  |  |  |  |  |  |  | > 100 |  |  |  |  |
| O=C1OCC2=C1C(c1cccc(C(F)(F)F)c1)c1cc3c(cc1N2CCO)CCC3 (stereo unspecified) | 2.18 | 12.1 | 0.427 | 6.77 | 7.74 | 8.31 | 6.55 |  | 0.156 | 1.41 | 0.133 µM | 0.271 | 0.203 | 0.175 |  | 5.4 | 0.178 | 0.146 | 7.72 | 0.167 |
| COc1ccc2[nH]cc(-c3nc(-c4c[nH]c5ccncc45)cs3)c2c1 | 3.05 | 3.44 | 3.47 |  | 4.77 | 6.05 | 3.33 |  | 1.65 | 1.94 | 1.51 µM |  | 2.37 | 1.77 |  | 3.73 | 2.08 | 2.15 | 4.95 | 1.84 |
| COc1ccc(C2=C(c3cc(OC)c(OC)c(OC)c3)C(=O)OC2)cc1OC | 1.5 | > 100 |  | > 49.4 | > 100 |  | 55.5 |  | 0.0182 | 47.6 |  | 0.428 | 0.163 | 0.0548 | < 0.01 | > 42.6 | 0.0465 | 0.123 | 39.1 | < 0.0222 |
| CC[C@@]1(O)C(=O)OCc2c1cc1n(c2=O)Cc2cc3c(NC(=O)CN)cccc3nc2-1 | 2.32 | > 100 |  |  | 9.22 | > 43.8 | > 56.1 | < 0.0121 |  |  |  |  |  |  |  | 2.94 |  |  | > 100 |  |
| COC(=O)C1=Cc2c(cc(OC)c(OC)c2OC)[C@H](c2ccc(OC)c(OC)c2OC)C1C(=O)OC (stereo partly specified) | > 100 | > 100 | > 100 | > 100 | > 100 | > 100 | > 100 | > 100 |  |  |  |  |  |  |  | > 100 |  |  |  |  |
| COc1ccc(/C=C\c2cc(OC)c(OC)c(OC)c2)cc1OCC(=O)Nc1nc2ccc(OC(F)(F)F)cc2s1 | 22.9 | > 100 |  | > 100 | > 100 | > 100 | > 100 | > 100 | 3.26 | 4.57 |  | 4.77 | 5 | 3.92 | 3.55 | > 100 | 7.09 | 4.33 | > 100 | 4.11 |
| CNC(=O)OCc1[nH]ccc2c(C)c3nc4ccc(OC)cc4c3cc12 | 12.8 | > 81 | 19 |  | 56 | > 24.9 | > 100 | 1.98 |  |  |  |  |  |  |  |  |  |  |  |  |
| CC1(C)N[P+]2(Nc3ccccc3O2)OC1=O (stereo unspecified) | > 100 | > 100 | > 100 | > 100 | > 100 | > 100 | > 100 |  |  |  |  |  |  |  |  | > 100 |  |  | > 100 |  |
| NC(=O)NCCSC1CCCCC1O (stereo unspecified) | > 100 | > 100 |  | > 100 | > 100 | > 100 | > 100 | > 100 |  |  |  |  |  |  |  | > 100 |  |  | > 100 |  |
